From US20210213037A1, “METHODS FOR TREATING FIBROSIS” (CHILDREN'S HOSPITAL MEDICAL CENTER, priority 2018, published 2021)

Tests used:
[1] = tested on: TGFα mice; assay: TGFα-induced pulmonary fibrosis mouse model, therapeutic intervention in established fibrosis; type: in vivo; details: vs vehicle
Description: Mouse model of TGFα-induced pulmonary fibrosis and Barasertib treatment therapy The generation of TGFα-overexpressing mice has been described previously (HARDIE et al. (2004) “Conditional expression of transforming growth factor-alpha in adult mouse lung causes pulmonary fibrosis” Am J Physiol Lung Cell Mol Physiol, Vol. 286, pp. L741-749, which is herein incorporated by reference in its entirety). Clara cell-specific protein-rtTA^+/− (CCSP-rtTA) mice were crossed with heterozygous (TetO)7-cmv TGFα mice to produce bitransgenic CCSP/TGFα mice. To induce TGFα expression, the transgenic mice were fed with doxycycline (Dox)-containing chow (62.5 mg/kg) (MADALA et al. (2014) “Inhibition of the alphavbeta6 integrin leads to limited alteration of TGF-alpha-induced pulmonary fibrosis” Am J Physiol Lung Cell Mol Physiol, Vol. 306, pp. L726-735, which is herein incorporated by reference in its entirety). They were housed under specific pathogen-free conditions and handled in accordance with protocols approved by the Institutional Animal Care and Use Committee of the Cincinnati Children's Hospital Research Foundation. Barasertib (Selleckchem, Houston, Tex.) was prepared in fresh vehicle (5% DMSO and 50% PEG in PBS) every day before treatment. […]

[2] = tested on: idiopathic pulmonary fibrosis; details: cited from earlier work

COC(=O)c1ccc2c(c1)NC(=O)/C2=C(\Nc1ccc(N(C)C(=O)CN2CCN(C)CC2)cc1)c1ccccc1 [nintedanib]
fibroproliferation (Ki67 immunostaining of lung sections) ([1]; Dox two weeks, then barasertib 25 or 50 mg/kg QD or nintedanib 60 mg/kg QD for 5 days, data not shown): reduction in fibroproliferation | expression of ECM genes (Co11α, FN1; RT-PCR) ([1]; barasertib 25 or 50 mg/kg QD or nintedanib 60 mg/kg QD i.p., FIG. 14): attenuated | effect on mortality [2]: neither pirfenidone nor nintedanib had any effect

Cc1ccc(=O)n(-c2ccccc2)c1 [pirfenidone]
effect on mortality [2]: neither pirfenidone nor nintedanib had any effect | effect on respiratory symptoms [2]: no effect
